The test addresses T1, TXA2 synthetase (Homo sapiens, UniProt P24557).
T1 construct: human platelet microsomes (HPM); from tissue; host or cells: human platelet microsomes
T1 sequence (P24557 1-533): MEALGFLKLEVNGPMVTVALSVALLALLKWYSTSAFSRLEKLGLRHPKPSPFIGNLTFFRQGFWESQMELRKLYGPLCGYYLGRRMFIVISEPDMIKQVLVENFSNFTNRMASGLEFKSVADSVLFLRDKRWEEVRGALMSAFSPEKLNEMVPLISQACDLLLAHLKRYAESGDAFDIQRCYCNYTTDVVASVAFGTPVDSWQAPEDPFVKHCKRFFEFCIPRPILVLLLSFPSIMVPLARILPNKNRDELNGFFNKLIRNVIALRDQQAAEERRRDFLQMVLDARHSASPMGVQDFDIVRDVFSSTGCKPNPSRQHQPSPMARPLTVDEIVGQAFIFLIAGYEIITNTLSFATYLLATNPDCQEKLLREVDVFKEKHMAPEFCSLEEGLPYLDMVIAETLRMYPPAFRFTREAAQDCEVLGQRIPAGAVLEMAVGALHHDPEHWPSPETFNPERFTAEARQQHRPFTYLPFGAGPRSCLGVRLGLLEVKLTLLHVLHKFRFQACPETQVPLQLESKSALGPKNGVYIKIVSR
The test is described as follows: TXA2 inhibition test: TXA2 generated from PGH2 with human platelet microsomes, measured by the response of superfused rabbit aortic strips. It is filed as biochemical. As to conditions: test compound added to human platelet microsomes 5 minutes before mixing with PGH2; rabbit aorta response; read-out: approximate ED50 (inhibiting TXA2 formation) (converted). As to the method: The compounds of the present invention were tested for TXA2 inhibition as follows:
Rabbit aortic strips were superfused in series with Krebs solution. Thromboxane A2 (TXA2) was generated by mixing prostaglandin H2 (PGH2) with human platelet microsomes (HPM).
Potential inhibitors were tested by comparing the response of the rabbit aorta to the amount of TXA2 produced by mixing PGH2 and HPM without the test compound in the reaction medium and then the amount of TXA2 produced when the test compound was added to the HPM 5 minutes before the HPM was mixed with PGH2. […] For a discussion of TXA2 synthetase inhibition testing see, e.g., R. Gorman, supra.

`O=C(O)c1cc2cc(Cc3cccnc3)ccc2s1` [Example 7, 5-(3-pyridinylmethyl)benzo[b]thiophene-2-carboxylic acid]: the IC50 was around 3.71 nM.

These data come from patent publication US4611059A, “Pyridyl-substituted benzothiophenes” (The Upjohn Company, priority 1985, dated 1986).
